Measured values published in PMC7211198, “Phase 1b study of a small molecule antagonist of human chemokine (C-C motif) receptor 2 (PF-04136309) in combination with nab-paclitaxel/gemcitabine in first-line treatment of metastatic pancreatic ductal adenocarcinoma” (Investigational New Drugs, 2019).

Assay: Safety and tolerability (TEAEs, SAEs, DLTs, RP2D) in phase Ib study
Format: in vivo, human
Details: 500 mg BID + nab-P/Gem
Description: Safety assessments included collection of adverse events (AEs), serious AEs (SAEs), vital signs and physical examination, electrocardiogram (12-lead), laboratory assessments, including pregnancy test, and verification of concomitant treatments. A patient was considered as DLT-evaluable if the patient experienced a DLT or if otherwise, in the absence of a DLT, the patient received at least 85% of the planned doses of each study drug in the first 28-day cycle. DLTs were defined as any of the following events occurring in the first cycle of treatment (days 1 through 28) and attributed (i.e., judged to be at least possibly related) to the combination of PF-04136309 plus nab-paclitaxel/gemcitabine, where relationship with the combination could not be ruled out. DLTs were hematologic events of grade 4 neutropenia lasting >5 days; febrile neutropenia; grade ≥ 3 neutropenic infection; grade ≥ 3 thrombocytopenia with grade ≥ 2 bleeding; grade 4 thrombocytopenia; and nonhematologic events of grade 3 toxicities. Exceptions included nausea and vomiting responding to prophylaxis and/or treatment and lasting <7 days from each chemotherapy infusion period; diarrhea responding to treatment and lasting <7 days; grade 3 fatigue lasting <7 days; grade 3 QT interval corrected for heart rate prolongation (>500 msec) persisting after correction of any reversible causes; and/or grade 3 aspartate aminotransferase (AST) and/or alanine aminotransferase (ALT) increase lasting ≤7 days. All grade 4 toxicities and a delay of >2 weeks in receiving the next scheduled cycle due to persistent treatment-related toxicities were considered DLTs. AEs meeting DLT criteria in the dose-expansion phase included grade 3 events of diarrhea, hypokalemia, and dysesthesia and grade 4 hypoxia. […] AEs were graded according to the National Cancer Institute Common Terminology Criteria for Adverse Events, version 4.03.

## O=C(NCC(=O)N1CC[C@H](N[C@H]2CC[C@@](O)(c3ccc(-c4ncccn4)cn3)CC2)C1)c1cccc(C(F)(F)F)c1 [PF-04136309]
all-causality TEAE
  Alopecia, Grade 4: 0 n (%)
  Alopecia, Grade 5: 0 n (%)
  Alopecia, Total: 10 (58.8) n (%)
  Anemia, Grade 1: 2 (11.8) n (%)
  Anemia, Grade 2: 5 (29.4) n (%)
  Anemia, Grade 3: 4 (23.5) n (%)
  Anemia, Grade 4: 0 n (%)
  Anemia, Grade 5: 0 n (%)
  Anemia, Total: 11 (64.7) n (%)
  Any AE, Grade 1: 0 n (%)
  Any AE, Grade 2: 1 (5.9) n (%)
  Any AE, Grade 3: 12 (70.6) n (%)
  Any AE, Grade 4: 3 (17.6) n (%)
  Any AE, Grade 5: 1 (5.9) n (%)
  Any AE, Total: 17 (100.0) n (%)
  Appetite decrease, Grade 1: 5 (29.4) n (%)
  Appetite decrease, Grade 2: 0 n (%)
  Appetite decrease, Grade 3: 1 (5.9) n (%)
  Appetite decrease, Grade 4: 0 n (%)
  Appetite decrease, Grade 5: 0 n (%)
  Appetite decrease, Total: 6 (35.3) n (%)
  Blood alkaline phosphatase, Grade 1: 1 (5.9) n (%)
  Blood alkaline phosphatase, Grade 2: 4 (23.5) n (%)
  Blood alkaline phosphatase, Grade 3: 2 (11.8) n (%)
  Blood alkaline phosphatase, Grade 4: 0 n (%)
  Blood alkaline phosphatase, Grade 5: 0 n (%)
  Blood alkaline phosphatase, Total: 7 (41.2) n (%)
  Constipation, Grade 1: 5 (29.4) n (%)
  Constipation, Grade 2: 2 (11.8) n (%)
  Constipation, Grade 3: 0 n (%)
  Constipation, Grade 4: 0 n (%)
  Constipation, Grade 5: 0 n (%)
  Constipation, Total: 7 (41.2) n (%)
  Diarrhea, Grade 1: 4 (23.5) n (%)
  Diarrhea, Grade 2: 2 (11.8) n (%)
  Diarrhea, Grade 3: 1 (5.9) n (%)
  Diarrhea, Grade 4: 0 n (%)
  Diarrhea, Grade 5: 0 n (%)
  Diarrhea, Total: 7 (41.2) n (%)
  Edema, peripheral, Grade 1: 7 (41.2) n (%)
  Edema, peripheral, Grade 2: 1 (5.9) n (%)
  Edema, peripheral, Grade 3: 0 n (%)
  Edema, peripheral, Grade 4: 0 n (%)
  Edema, peripheral, Grade 5: 0 n (%)
  Edema, peripheral, Total: 8 (47.1) n (%)
  Fatigue, Grade 1: 4 (23.5) n (%)
  Fatigue, Grade 2: 4 (23.5) n (%)
  Fatigue, Grade 3: 5 (29.4) n (%)
  Fatigue, Grade 4: 0 n (%)
  Fatigue, Grade 5: 0 n (%)
  Fatigue, Total: 13 (76.5) n (%)
  Headache, Grade 1: 4 (23.5) n (%)
  Headache, Grade 2: 1 (5.9) n (%)
  Headache, Grade 3: 0 n (%)
  Headache, Grade 4: 0 n (%)
  Headache, Grade 5: 0 n (%)
  Headache, Total: 5 (29.4) n (%)
  Hyperglycemia, Grade 1: 2 (11.8) n (%)
  Hyperglycemia, Grade 2: 3 (17.6) n (%)
  Hyperglycemia, Grade 3: 3 (17.6) n (%)
  Hyperglycemia, Grade 4: 0 n (%)
  Hyperglycemia, Grade 5: 0 n (%)
  Hyperglycemia, Total: 8 (47.1) n (%)
  Insomnia, Grade 1: 7 (41.2) n (%)
  Insomnia, Grade 2: 1 (5.9) n (%)
  Insomnia, Grade 3: 0 n (%)
  Insomnia, Grade 4: 0 n (%)
  Insomnia, Grade 5: 0 n (%)
  Insomnia, Total: 8 (47.1) n (%)
  Lymphopenia, Grade 1: 0 n (%)
  Lymphopenia, Grade 2: 0 n (%)
  Lymphopenia, Grade 3: 5 (29.4) n (%)
  Lymphopenia, Grade 4: 0 n (%)
  Lymphopenia, Grade 5: 0 n (%)
  Lymphopenia, Total: 5 (29.4) n (%)
  Nausea, Grade 1: 12 (70.6) n (%)
  Nausea, Grade 2: 2 (11.8) n (%)
  Nausea, Grade 3: 0 n (%)
  Nausea, Grade 4: 0 n (%)
  Nausea, Grade 5: 0 n (%)
  Nausea, Total: 14 (82.4) n (%)
  Neuropathy peripheral, Grade 1: 8 (47.1) n (%)
  Neuropathy peripheral, Grade 2: 1 (5.9) n (%)
  Neuropathy peripheral, Grade 3: 0 n (%)
  Neuropathy peripheral, Grade 4: 0 n (%)
  Neuropathy peripheral, Grade 5: 0 n (%)
  Neuropathy peripheral, Total: 9 (52.9) n (%)
  Pyrexia, Grade 1: 7 (41.2) n (%)
  Pyrexia, Grade 2: 5 (29.4) n (%)
  Pyrexia, Grade 3: 0 n (%)
  Pyrexia, Grade 4: 0 n (%)
  Pyrexia, Grade 5: 0 n (%)
  Pyrexia, Total: 12 (70.6) n (%)
  Rash, Grade 1: 7 (41.2) n (%)
  Rash, Grade 2: 1 (5.9) n (%)
  Rash, Grade 3: 0 n (%)
  Rash, Grade 4: 0 n (%)
  Rash, Grade 5: 0 n (%)
  Rash, Total: 8 (47.1) n (%)
  Vomiting, Grade 1: 6 (35.3) n (%)
  Vomiting, Grade 2: 1 (5.9) n (%)
  Vomiting, Grade 3: 0 n (%)
  Vomiting, Grade 4: 0 n (%)
  Vomiting, Grade 5: 0 n (%)
  Vomiting, Total: 7 (41.2) n (%)
  Weight decreased, Grade 1: 5 (29.4) n (%)
  Weight decreased, Grade 2: 4 (23.5) n (%)
  Weight decreased, Grade 3: 0 n (%)
  Weight decreased, Grade 4: 0 n (%)
  Weight decreased, Grade 5: 0 n (%)
  Weight decreased, Total: 9 (52.9) n (%)
treatment-related SAE
  Any SAE, Grade 1: 0 n (%)
  Any SAE, Grade 2: 0 n (%)
